# Values of other authors, collected in patent publication US7662581B1, “Eg5 co-crystals” (Novartis Vaccines and Diagnostics, Inc., priority 2003, dated 2010).
# Assays:
# [1] = tested on: DAN-G pancreatic carcinoma cells
# [2] = tested on: HsEg5; conditions: protein level
smiles,measurement,setting,value
"CC1=C(/C=C/C(C)=C/C=C/C(C)=C/C(=O)O)C(C)(C)CCC1 [ATRA, all trans-retinoic acid]",growth inhibition,[1],significant growth inhibition
same,HsEg5 expression,[2],reduces HsEg5 expression on protein level
